This series in a line: Solubility / suspension in thrombin reconstituting solution. Conditions: aqueous calcium chloride reconstituting solution. From the text:
Blended betamethasone sodium phosphate and acetate solutions preferably include anti-caking agent(s) and low calcium chloride concentration(s).

For `C[C@H]1C[C@H]2[C@@H]3CCC4=CC(=O)C=C[C@]4(C)[C@@]3(F)[C@@H](O)C[C@]2(C)[C@@]1(O)C(=O)COP(=O)([O-])[O-].[Na+].[Na+]` [betamethasone sodium phosphate], the solubility result is “reduced in the presence of aqueous calcium chloride”.
